Data: patent publication US9097693B2, “Simple analysis method of drugs” (priority 2005, dated 2015)
Where two headings read alike, the source gives them in different places.

Settings: for nicotine content in hair: smoker, three 6 cm hairs (about 0.9 mg)
Protocol: Three 60 mm hairs (about 0.9 mg) were put in a stainless injection needle (inner diameter of 0.5 mm, outer diameter of 0.7 mm, the tip conical part length of 2 mm, the container part length of 80 mm, and one aperture of 0.4 mm in diameter in the lateral side of the end of the container). A syringe was fixed to the needle and methanol, dichloromethane and methanol each one ml were run in this order through the needle to wash the hairs.
Then, the needle was inserted into an injector (at 300° C.) of a gas chromatograph (Agilent, HP-6890) and held for 15 seconds. Then, dichloromethane (25 μL) was injected for desorption and a carrier gas was run. The chromatography was conducted under the following conditions. • Column diameter: 0.25 mm • Column length: 25 m • Column stationary phase: dimethylpolysiloxane (HR-1) • Column temperature: 50° C. to 300° C. (temperature rising: 5° C./min) • Carrier gas: helium • Carrier gas flow: 0.9 ml/min • Split ratio: 25:1 • Detector: MS (Agilent, HP-5972)
Three 6 cm hairs (about 0.9 mg) were used for the analysis.

With `CN1CCCC1c1cccnc1` (stereo not shown) [nicotine] the “nicotine detection in hair” value (hair of smoker, three 60 mm hairs (about 0.9 mg), GC-MS) was “clearly detected”, the “nicotine content in hair” value (10 cigarettes per day, tobacco brand B (nominal nicotine 0.7 mg)) was 11.5 ng/mg and the “nicotine content in hair” value (15 cigarettes per day, tobacco brand E (nominal nicotine 0.8 mg)) was 8.2 ng/mg. For the same compound, the “nicotine content in hair” value (15 cigarettes per day, tobacco brand F (nominal nicotine 0.1 mg)) was 13.0 ng/mg, the “nicotine content in hair” value (20 cigarettes per day, tobacco brand A (nominal nicotine 1.2 mg)) was 12.1 ng/mg and the “nicotine content in hair” value (20 cigarettes per day, tobacco brand D (nominal nicotine 0.1 mg)) was 30.5 ng/mg. For the same compound, the “nicotine content in hair” value (30 cigarettes per day, tobacco brand C (nominal nicotine 0.4 mg)) was 55.3 ng/mg.
